# From patent publication US20230263891A1, “SONOGENETIC STIMULATION OF CELLS EXPRESSING TRPA1” (Salk Institute for Biological Studies, priority 2020, published 2023)
# Read-outs that look alike come from different tables or passages of the source. Where no end group is shown, it is not given here.
# B1: Y785S: hsTRPA1 mutant with TM2 CRAC domain disrupted, Tyr785 replaced with Ser (protein, UniProt O75762 1-1119, looked up, variant Y785S)
# Transient receptor potential …: MKRSLRKMWRPGEKKEPQGVVYEDVPDDTEDFKESLKVVFEGSAYGLQNFNKQKKLKRCDDMDTFFLHYAAAEGQIELMEKITRDSSLEVLHEMDDYGNTPLHCAVEKNQIESVKFLLSRGANPNLRNFNMMAPLHIAVQGMNNEVMKVLLEHRTIDVNLEGENGNTAVIIACTTNNSEALQILLKKGAKPCKSNKWGCFPIHQAAFSGSKECMEIILRFGEEHGYSRQLHINFMNNGKATPLHLAVQNGDLEMIKMCLDNGAQIDPVEKGRCTAIHFAATQGATEIVKLMISSYSGSVDIVNTTDGCHETMLHRASLFDHHELADYLISVGADINKIDSEGRSPLILATASASWNIVNLLLSKGAQVDIKDNFGRNFLHLTVQQPYGLKNLRPEFMQMQQIKELVMDEDNDGCTPLHYACRQGGPGSVNNLLGFNVSIHSKSKDKKSPLHFAASYGRINTCQRLLQDISDTRLLNEGDLHGMTPLHLAAKNGHDKVVQLLLKKGALFLSDHNGWTALHHASMGGYTQTMKVILDTNLKCTDRLDEDGNTALHFAAREGHAKAVALLLSHNADIVLNKQQASFLHLALHNKRKEVVLTIIRSKRWDECLKIFSHNSPGNKCPITEMIEYLPECMKVLLDFCMLHSTEDKSCRDYYIEYNFKYLQCPLEFTKKTPTQDVIYEPLTALNAMVQNNRIELLNHPVCKEYLLMKWLAYGFRAHMMNLGSYCLGLIPMTILVVNIKPGMAFNSTGIINETSDHSEILDTTNSYLIKTCMILVFLSSIFGSCKEAGQIFQQKRNYFMDISNVLEWIIYTTGIIFVLPLFVEIPAHLQWQCGAIAVYFYWMNFLLYLQRFENCGIFIVMLEVILKTLLRSTVVFIFLLLAFGLSFYILLNLQDPFSSPLLSIIQTFSMMLGDINYRESFLEPYLRNELAHPVLSFAQLVSFTIFVPIVLMNLLIGLAVGDIAEVQKHASLKRIAMQVELHTSLEKKLPLWFLRKVDQKSTIVYPNKPRSGGMLFHIFCFLFCTGEIRQEIPNADKSLEMEILKQKYRLKDLTFLLEKQHELIKLIIQKMEIISETEDDDSHCSFQDRFKKEQMEQRNSRWNTVLRAVKAKTHHLEP
# B2: human-TRPV1: human TRPV1 channel expressed in HEK cells (protein, UniProt Q8NER1 1-839, looked up)
# Transient receptor potential …: MKKWSSTDLGAAADPLQKDTCPDPLDGDPNSRPPPAKPQLSTAKSRTRLFGKGDSEEAFPVDCPHEEGELDSCPTITVSPVITIQRPGDGPTGARLLSQDSVAASTEKTLRLYDRRSIFEAVAQNNCQDLESLLLFLQKSKKHLTDNEFKDPETGKTCLLKAMLNLHDGQNTTIPLLLEIARQTDSLKELVNASYTDSYYKGQTALHIAIERRNMALVTLLVENGADVQAAAHGDFFKKTKGRPGFYFGELPLSLAACTNQLGIVKFLLQNSWQTADISARDSVGNTVLHALVEVADNTADNTKFVTSMYNEILMLGAKLHPTLKLEELTNKKGMTPLALAAGTGKIGVLAYILQREIQEPECRHLSRKFTEWAYGPVHSSLYDLSCIDTCEKNSVLEVIAYSSSETPNRHDMLLVEPLNRLLQDKWDRFVKRIFYFNFLVYCLYMIIFTMAAYYRPVDGLPPFKMEKTGDYFRVTGEILSVLGGVYFFFRGIQYFLQRRPSMKTLFVDSYSEMLFFLQSLFMLATVVLYFSHLKEYVASMVFSLALGWTNMLYYTRGFQQMGIYAVMIEKMILRDLCRFMFVYIVFLFGFSTAVVTLIEDGKNDSLPSESTSHRWRGPACRPPDSSYNSLYSTCLELFKFTIGMGDLEFTENYDFKAVFIILLLAYVILTYILLLNMLIALMGETVNKIAQESKNIWKLQRAITILDTEKSFLKCMRKAFRSGKLLQVGYTPDGKDDYRWCFRVDEVNWTTWNTNVGIINEDPGNCEGVKRTLSFSLRSSRVSGRHWKNFALVPLLREASARDRQSAQPEEVYLRQFSGSLKPEDAEVFKSPAASGEK
# Key:
# Assay type in all cases: cell-based
# [1] = tested on: mouse primary cortical neurons; experiment: GCaMP6f calcium imaging of primary cortical neurons under ultrasound or AITC
# hsTRPA1 [2] = target: T1, hsTRPA1 (Homo sapiens, UniProt O75762); experiment: Agonist activation of hsTRPA1-expressing HEK cells (GCaMP6f); settings: NMM 100 μM; AITC 33 μM; dTom control cells for comparison
# T1 construct: HEK cells transfected with either full-length hsTRPA1 or channels containing deletions; porcine teschovirus-1 2A self-cleaving peptide (p2A) linking the channel to dTomato in a bicistronic vector (cleaved yes); host or cells: HEK 293T cells expressing human alpha-v beta-3 integrin and stably expressing GCaMP6f
# hsTRPA1 [3] = target: T1, hsTRPA1
# hsTRPA1 [4] = target: T1, hsTRPA1; experiment: Effect of agents on ultrasound-evoked GCaMP6f response of hsTRPA1-expressing HEK cells
# hsTRPA1 [5] = target: T1, hsTRPA1; experiment: Effect of agents on AITC-triggered GCaMP6f response of hsTRPA1-expressing HEK cells; settings: AITC 33 μM; after incubation with agent; versus vehicle
# mouse-Piezol = mouse-Piezol (Mus musculus, UniProt E2JF22); settings: yoda-1 10 μM
# [6] = tested on: Human Embryonic Kidney 293T (HEK) cells; experiment: Ultrasound-evoked GCaMP6f calcium response of HEK cells transfected with candidate channels (screen and TRPA1 variants); settings: for Response to ultrasound stimulation (cells activated, GCaMP6f): transfected GCaMP6f HEK cells, 6.91 MHz, screen at 100 msecs, 1.5 MPa
# [7] = tested on: Human Embryonic Kidney 293T (HEK) cells; experiment: AITC (chemical agonist) GCaMP6f response of HEK cells transfected with hsTRPA1 variants; settings: AITC 33 μM
# [8] = control neurons without hsTRPA1
# [9] = A784168 2 μM, BAPTA 30 μM, versus vehicle
# [10] = agent added 45 minutes before, HC-030031 40 μM, MCD 5 mM, nocodazole 5 μM, latrunculin A 1 μM, paclitaxel 600 nM, versus vehicle
# T1 sequence (O75762 whole entry): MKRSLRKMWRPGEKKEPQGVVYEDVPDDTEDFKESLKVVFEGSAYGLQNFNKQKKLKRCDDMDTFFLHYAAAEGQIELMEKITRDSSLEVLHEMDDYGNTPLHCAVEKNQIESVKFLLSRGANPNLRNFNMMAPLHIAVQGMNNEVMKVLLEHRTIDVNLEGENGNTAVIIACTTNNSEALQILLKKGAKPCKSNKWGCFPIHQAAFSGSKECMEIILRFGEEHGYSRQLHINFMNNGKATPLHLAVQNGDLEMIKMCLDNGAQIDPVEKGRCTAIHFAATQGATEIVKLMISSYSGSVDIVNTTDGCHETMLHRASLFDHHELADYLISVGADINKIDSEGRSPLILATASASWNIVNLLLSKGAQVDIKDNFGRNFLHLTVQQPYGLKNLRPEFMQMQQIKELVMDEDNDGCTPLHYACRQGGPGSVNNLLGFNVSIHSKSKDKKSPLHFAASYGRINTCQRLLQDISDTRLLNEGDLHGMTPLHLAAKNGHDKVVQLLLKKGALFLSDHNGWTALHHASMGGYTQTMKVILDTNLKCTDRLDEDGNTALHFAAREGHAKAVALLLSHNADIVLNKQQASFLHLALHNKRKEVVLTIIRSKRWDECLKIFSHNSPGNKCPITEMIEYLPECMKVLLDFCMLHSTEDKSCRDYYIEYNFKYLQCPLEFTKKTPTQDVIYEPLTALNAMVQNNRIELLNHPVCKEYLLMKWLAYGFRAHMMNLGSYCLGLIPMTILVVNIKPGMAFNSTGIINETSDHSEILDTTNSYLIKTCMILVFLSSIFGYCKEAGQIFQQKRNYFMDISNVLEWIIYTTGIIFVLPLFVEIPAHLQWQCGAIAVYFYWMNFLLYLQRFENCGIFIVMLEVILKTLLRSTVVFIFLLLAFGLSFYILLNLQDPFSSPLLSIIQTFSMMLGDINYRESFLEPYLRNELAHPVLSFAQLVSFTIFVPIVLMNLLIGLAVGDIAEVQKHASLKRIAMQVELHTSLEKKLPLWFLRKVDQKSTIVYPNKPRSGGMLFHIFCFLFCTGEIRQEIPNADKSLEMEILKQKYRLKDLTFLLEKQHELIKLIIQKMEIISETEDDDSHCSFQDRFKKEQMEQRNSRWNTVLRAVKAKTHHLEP
# Sequence of mouse-Piezol (E2JF22 whole entry): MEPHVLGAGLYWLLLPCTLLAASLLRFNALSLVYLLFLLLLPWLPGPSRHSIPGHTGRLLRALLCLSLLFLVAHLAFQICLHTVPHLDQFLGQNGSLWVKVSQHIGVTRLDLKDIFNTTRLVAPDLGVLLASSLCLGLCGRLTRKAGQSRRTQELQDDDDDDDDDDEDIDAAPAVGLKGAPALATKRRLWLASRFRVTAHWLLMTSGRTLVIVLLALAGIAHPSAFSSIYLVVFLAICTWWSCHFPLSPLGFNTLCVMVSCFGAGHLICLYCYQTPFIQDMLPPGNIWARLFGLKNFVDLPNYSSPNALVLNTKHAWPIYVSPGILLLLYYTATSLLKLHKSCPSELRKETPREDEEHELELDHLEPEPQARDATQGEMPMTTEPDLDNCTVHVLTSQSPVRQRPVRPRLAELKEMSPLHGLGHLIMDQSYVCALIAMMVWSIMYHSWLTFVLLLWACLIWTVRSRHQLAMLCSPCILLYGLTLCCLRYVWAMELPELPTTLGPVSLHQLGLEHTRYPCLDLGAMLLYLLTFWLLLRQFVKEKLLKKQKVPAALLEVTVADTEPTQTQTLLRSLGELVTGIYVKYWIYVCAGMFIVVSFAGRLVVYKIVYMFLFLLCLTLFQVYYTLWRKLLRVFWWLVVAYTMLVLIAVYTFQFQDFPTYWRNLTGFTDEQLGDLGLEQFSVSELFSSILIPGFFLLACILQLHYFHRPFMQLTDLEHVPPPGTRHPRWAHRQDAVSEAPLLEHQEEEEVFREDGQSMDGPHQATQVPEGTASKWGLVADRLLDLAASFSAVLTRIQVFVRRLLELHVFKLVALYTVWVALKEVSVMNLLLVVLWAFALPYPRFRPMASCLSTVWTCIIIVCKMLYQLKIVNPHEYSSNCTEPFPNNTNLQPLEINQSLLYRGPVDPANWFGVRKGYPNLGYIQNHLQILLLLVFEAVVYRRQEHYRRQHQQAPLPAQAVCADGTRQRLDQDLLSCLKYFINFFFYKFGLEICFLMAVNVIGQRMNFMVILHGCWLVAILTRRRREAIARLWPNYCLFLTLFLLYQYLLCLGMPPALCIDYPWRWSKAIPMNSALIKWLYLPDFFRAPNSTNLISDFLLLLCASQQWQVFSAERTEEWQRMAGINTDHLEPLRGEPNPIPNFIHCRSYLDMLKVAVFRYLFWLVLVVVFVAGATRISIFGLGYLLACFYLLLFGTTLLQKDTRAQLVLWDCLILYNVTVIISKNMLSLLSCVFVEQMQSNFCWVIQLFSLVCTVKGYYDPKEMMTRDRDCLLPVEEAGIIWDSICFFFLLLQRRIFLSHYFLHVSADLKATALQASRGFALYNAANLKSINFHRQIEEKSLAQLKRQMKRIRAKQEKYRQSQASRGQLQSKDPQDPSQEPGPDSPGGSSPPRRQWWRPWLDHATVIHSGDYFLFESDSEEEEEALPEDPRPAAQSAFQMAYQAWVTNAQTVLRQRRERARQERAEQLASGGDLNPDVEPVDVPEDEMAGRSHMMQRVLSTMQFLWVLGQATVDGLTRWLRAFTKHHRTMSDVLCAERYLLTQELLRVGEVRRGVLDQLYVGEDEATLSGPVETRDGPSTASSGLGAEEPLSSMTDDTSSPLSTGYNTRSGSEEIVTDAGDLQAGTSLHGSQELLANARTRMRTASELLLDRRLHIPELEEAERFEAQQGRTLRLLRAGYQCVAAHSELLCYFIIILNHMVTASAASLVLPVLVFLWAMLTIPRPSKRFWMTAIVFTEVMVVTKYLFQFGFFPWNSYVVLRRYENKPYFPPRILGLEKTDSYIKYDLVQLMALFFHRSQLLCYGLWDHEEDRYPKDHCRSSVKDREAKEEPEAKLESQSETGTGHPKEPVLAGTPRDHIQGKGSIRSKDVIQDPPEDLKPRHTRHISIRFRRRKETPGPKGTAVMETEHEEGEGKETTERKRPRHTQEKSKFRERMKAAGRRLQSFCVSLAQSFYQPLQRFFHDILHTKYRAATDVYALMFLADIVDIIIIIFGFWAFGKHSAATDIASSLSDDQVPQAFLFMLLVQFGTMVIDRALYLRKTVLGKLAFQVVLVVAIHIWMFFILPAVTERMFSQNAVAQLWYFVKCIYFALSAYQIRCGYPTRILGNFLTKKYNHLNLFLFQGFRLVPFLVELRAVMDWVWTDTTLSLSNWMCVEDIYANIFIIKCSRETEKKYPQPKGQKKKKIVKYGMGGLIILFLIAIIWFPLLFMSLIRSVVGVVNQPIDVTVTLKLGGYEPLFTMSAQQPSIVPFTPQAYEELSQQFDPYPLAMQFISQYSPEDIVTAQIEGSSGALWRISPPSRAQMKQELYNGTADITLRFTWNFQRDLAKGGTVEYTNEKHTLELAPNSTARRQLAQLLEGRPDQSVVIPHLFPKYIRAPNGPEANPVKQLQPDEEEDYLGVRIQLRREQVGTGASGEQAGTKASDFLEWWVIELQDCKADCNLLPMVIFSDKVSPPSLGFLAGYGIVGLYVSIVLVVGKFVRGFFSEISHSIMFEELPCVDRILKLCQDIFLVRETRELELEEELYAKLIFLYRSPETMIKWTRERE
molecule,measurement,setting,value
"C=CCN=C=S [AITC, allyl isothiocyanate]",Response of Cre-only control neurons to agonist,[1]; [8],did not respond
same,Activation of TRPA1-expressing HEK cells by agonist (GCaMP6f),hsTRPA1 [2],specifically activated TRPA1-expressing HEK cells
O=C(O)CN(CC(=O)O)c1ccccc1OCCOc1ccccc1N(CC(=O)O)CC(=O)O [BAPTA],Effect on ultrasound responses of hsTRPA1-expressing neurons (GCaMP6f),[1]; [9],blocked neuronal responses to ultrasound
CC(C)c1ccc(NC(=O)Cn2cnc3c2c(=O)n(C)c(=O)n3C)cc1 [HC-030331],Effect on ultrasound-triggered membrane events (mean peak amplitude),hsTRPA1 [3],attenuated
same,Effect on ultrasound responses of hsTRPA1-expressing neurons (GCaMP6f),[1]; [9],significantly attenuated
same,Effect on ultrasound-evoked activity of control (Cre) neurons,[1]; [8],without affecting
same,Effect on ultrasound responses of hsTRPA1-expressing HEK cells (GCaMP6f peak amplitude),hsTRPA1 [4],inhibited
"CN1C(=O)C=CC1=O [NMM, N-methylmaleimide]",Activation of TRPA1-expressing HEK cells by agonist (GCaMP6f),hsTRPA1 [2],specifically activated TRPA1-expressing HEK cells
"CC(=O)O[C@H]1C(=O)[C@@]2(C)[C@H]([C@H](OC(=O)c3ccccc3)[C@]3(O)C[C@H](OC(=O)[C@H](O)[C@@H](NC(=O)c4ccccc4)c4ccccc4)C(C)=C1C3(C)C)[C@]1(OC(C)=O)CO[C@@H]1C[C@@H]2O [Taxol, paclitaxel]",Effect on AITC-triggered responses of hsTRPA1-expressing HEK cells,hsTRPA1 [5],significantly reduced
same,Effect on ultrasound responses of hsTRPA1-expressing HEK cells (GCaMP6f peak amplitude),hsTRPA1 [4]; [10],no significant effect
C=C1[C@@H](C)[C@H]2[C@H](Cc3ccccc3)NC(=O)[C@]23[C@H](OC(C)=O)/C=C/[C@@](C)(O)C(=O)[C@@H](C)C/C=C/[C@H]3[C@@H]1O [cytochalasin D],Effect on AITC-triggered responses of hsTRPA1-expressing HEK cells,hsTRPA1 [5],not to be altered
same,Effect on ultrasound responses of hsTRPA1-expressing HEK cells (GCaMP6f peak amplitude),hsTRPA1 [4]; [10],reduced the ultrasound responses
C/C1=C\[C@H](C)C[C@H](C)OC(=O)C[C@H](c2ccc(O)cc2)NC(=O)[C@@H](Cc2c(Br)[nH]c3ccccc23)N(C)C(=O)[C@H](C)NC(=O)[C@@H](C)C1 [jasplakinolide],Effect on AITC-triggered responses of hsTRPA1-expressing HEK cells,hsTRPA1 [5],significantly reduced
C/C1=C/C(=O)O[C@@H]2C[C@@H](CC[C@H](C)/C=C\C=C\CC1)O[C@@](O)([C@@H]1CSC(=O)N1)C2 [latrunculin A],Effect on AITC-triggered responses of hsTRPA1-expressing HEK cells,hsTRPA1 [5],significantly reduced
same,Effect on ultrasound responses of hsTRPA1-expressing HEK cells (GCaMP6f peak amplitude),hsTRPA1 [4]; [10],reduced the ultrasound responses
COC(=O)Nc1nc2ccc(C(=O)c3cccs3)cc2[nH]1 [nocodazole],Effect on AITC-triggered responses of hsTRPA1-expressing HEK cells,hsTRPA1 [5],not to be altered
same,Effect on ultrasound responses of hsTRPA1-expressing HEK cells (GCaMP6f peak amplitude),hsTRPA1 [4]; [10],no significant effect
NC1=N[C@H](O)[C@H]2[C@H]3O[C@]4(O)O[C@@H]([C@@H](O)[C@@]2(N1)[C@@H]4O)[C@]3(O)CO [tetrodotoxin],Effect on ultrasound responses of hsTRPA1-expressing neurons (GCaMP6f),[1],partially blocked
same,Effect on ultrasound-evoked activity of control (Cre) neurons,[1],completely abolishing responses
Clc1cccc(Cl)c1CSc1nnc(-c2cnccn2)s1 [yoda-1],Response of HEK cells expressing mouse Piezo1 to compound,mouse-Piezol,respond
"GsMTx-4-4: GsMTx-4, applied to Piezo1- and TRPV1-expressing HEK cells (GCLEFWWKCNPNDDKCCRPKLKCSKLFKLCNFSF; ends and bridges not checked; cysteine pairing not given here; UniProt Q7YT39 47-80, looked up)",Response of HEK cells expressing mouse Piezo1 to compound,mouse-Piezol,not
methyl-beta-cyclodextrin [MCD],Effect on AITC-triggered responses of hsTRPA1-expressing HEK cells,hsTRPA1 [5],did not affect the response to AITC
same,Effect on ultrasound responses of hsTRPA1-expressing HEK cells (GCaMP6f peak amplitude),hsTRPA1 [4]; [10],attenuated hsTRPA1 responses to ultrasound
mouse homolog: mouse TRPA1 (Mus musculus; RefSeq NM_177781),"Response to ultrasound stimulation (cells activated, GCaMP6f)",[6],only a third as responsive as hsTRPA1
mouse-Piezol: mouse Piezo1 channel expressed in HEK cells,"Response to ultrasound stimulation (cells activated, GCaMP6f)",[6],not
B1,"GCaMP6f peak amplitude upon ultrasound stimulation, variant versus full-length hsTRPA1",[6]; transfected HEK cells,complete loss of ultrasound sensitivity
same,"GCaMP6f peak amplitude upon treatment with AITC, variant versus full-length hsTRPA1",[7],without affecting responsiveness to AITC
B2,"Response to ultrasound stimulation (cells activated, GCaMP6f)",[6],not
